According to PubChem BioAssay AID1919014 (Molecular Pharmacology Branch, DTP, NCI, 2023):

Test system: NCI-H1341 complex spheroids, percent test/control
Assay: Anticancer human tumor NCI-H1341 cell line growth inhibition [AhR];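 also: spheroids exposed to agents for seven days before readout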
Details: for IC50: curve of first compound; for viability, T/C: stronger effect = lower value
How it was run: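 Complex tumor spheroids co-cultured with HUVEC and human MSC stroma; AhR antagonists tested in combination with standard-of-care and investigational agents. Top concentration at or near clinical Cmax (else 10 microM), half-log dilutions; growth expressed as percent test/control.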

[1] = second compound 0.1 µM, first compound 0.0316 µM
[2] = second compound 0.1 µM, first compound 0.1 µM
[3] = second compound 0.1 µM, first compound 0.316 µM
[4] = second compound 0.1 µM, first compound 1 µM
[5] = second compound 0.1 µM, first compound 3.16 µM
[6] = second compound 0.1 µM, first compound 10 µM
[7] = second compound 0.316 µM, first compound 0.0316 µM
[8] = second compound 0.316 µM, first compound 0.1 µM
[9] = second compound 0.316 µM, first compound 0.316 µM
[10] = second compound 0.316 µM, first compound 1 µM
[11] = second compound 0.316 µM, first compound 3.16 µM
[12] = second compound 0.316 µM, first compound 10 µM
[13] = second compound 1 µM, first compound 0.0316 µM
[14] = second compound 1 µM, first compound 0.1 µM
[15] = second compound 1 µM, first compound 0.316 µM
[16] = second compound 1 µM, first compound 1 µM
[17] = second compound 1 µM, first compound 3.16 µM
[18] = second compound 1 µM, first compound 10 µM
[19] = second compound 3.16 µM, first compound 0.0316 µM
[20] = second compound 3.16 µM, first compound 0.1 µM
[21] = second compound 3.16 µM, first compound 0.316 µM
[22] = second compound 3.16 µM, first compound 1 µM
[23] = second compound 3.16 µM, first compound 3.16 µM
[24] = second compound 3.16 µM, first compound 10 µM
[25] = second compound 10 µM, first compound 0.0316 µM
[26] = second compound 10 µM, first compound 0.1 µM
[27] = second compound 10 µM, first compound 0.316 µM
[28] = second compound 10 µM, first compound 1 µM
[29] = second compound 10 µM, first compound 3.16 µM
[30] = second compound 10 µM, first compound 10 µM

Row | SMILES | IC50 (second compound 0.1 µM) [µM] | IC50 (second compound 0.316 µM) [µM] | IC50 (second compound 1 µM) [µM] | IC50 (second compound 3.16 µM) [µM] | IC50 (second compound 10 µM) [µM] | viability, T/C [1] [%] | viability, T/C [2] [%] | viability, T/C [3] [%] | viability, T/C [4] [%] | viability, T/C [5] [%] | viability, T/C [6] [%] | viability, T/C [7] [%] | viability, T/C [8] [%] | viability, T/C [9] [%] | viability, T/C [10] [%] | viability, T/C [11] [%] | viability, T/C [12] [%] | viability, T/C [13] [%] | viability, T/C [14] [%] | viability, T/C [15] [%] | further results
1 | Nc1ccn(C2OC(CO)C(O)C2(F)F)c(=O)n1 (stereo not given) + Cc1cncc(-c2nc(NCCc3c[nH]c4ccccc34)c3ncn(C(C)C)c3n2)c1 | < 0.0316 | < 0.0316 | < 0.0316 | < 0.0316 | < 0.0316 | 28.4 | 28.2 | 25.5 | 25.2 | 27.6 | 20.8 | 30.6 | 28.5 | 25.9 | 25.6 | 22.7 | 21.5 | 29.2 | 31.7 | 27.9 | viability, T/C [16]: 26.4%; viability, T/C [17]: 24.3%; viability, T/C [18]: 20.9%; viability, T/C [19]: 32.8%; viability, T/C [20]: 27.1%; viability, T/C [21]: 28.5%; viability, T/C [22]: 27%; viability, T/C [23]: 26.8%; viability, T/C [24]: 21.6%; viability, T/C [25]: 36.6%; viability, T/C [26]: 23.7%; viability, T/C [27]: 28.9%; viability, T/C [28]: 27.3%; viability, T/C [29]: 30.8%; viability, T/C [30]: 23.1%
2 | O=C(C=Cc1cccc(S(=O)(=O)Nc2ccccc2)c1)NO + Cc1cncc(-c2nc(NCCc3c[nH]c4ccccc34)c3ncn(C(C)C)c3n2)c1 | 0.278 | 0.366 | 0.179 | 0.15 | < 0.0316 | 71.7 | 80.8 | 43.8 | 16 | 5.29 | 0.53 | 76.2 | 74.7 | 55.1 | 15.3 | 5.78 | 0.65 | 80.3 | 55.7 | 44.9 | viability, T/C [16]: 22.9%; viability, T/C [17]: 5.39%; viability, T/C [18]: 0.5%; viability, T/C [19]: 71.2%; viability, T/C [20]: 55.6%; viability, T/C [21]: 38.1%; viability, T/C [22]: 13.1%; viability, T/C [23]: 4.08%; viability, T/C [24]: 0.56%; viability, T/C [25]: 37%; viability, T/C [26]: 33.9%; viability, T/C [27]: 20.2%; viability, T/C [28]: 9.91%; viability, T/C [29]: 2.99%; viability, T/C [30]: 0.32%
3 | O=C(c1cc(Cc2n[nH]c(=O)c3ccccc23)ccc1F)N1CCN(C(=O)C2CC2)CC1 + Cc1cncc(-c2nc(NCCc3c[nH]c4ccccc34)c3ncn(C(C)C)c3n2)c1 | > 10 | > 10 | > 10 | > 10 | < 0.0316 | 87.6 | 80.9 | 82.1 | 85.5 | 76.7 | 61.7 | 72.7 | 91.4 | 64.4 | 77.5 | 74.1 | 63 | 88.3 | 61.2 | 70.8 | viability, T/C [16]: 79.3%; viability, T/C [17]: 71%; viability, T/C [18]: 62.7%; viability, T/C [19]: 57.5%; viability, T/C [20]: 61.1%; viability, T/C [21]: 60.6%; viability, T/C [22]: 62%; viability, T/C [23]: 68.1%; viability, T/C [24]: 51.4%; viability, T/C [25]: 19.4%; viability, T/C [26]: 19.5%; viability, T/C [27]: 19.6%; viability, T/C [28]: 21.3%; viability, T/C [29]: 21.2%; viability, T/C [30]: 22.1%
